# Results reported in ChEMBL document CHEMBL1201862, “PubChem BioAssay data set” (2004).
#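 Step 1: Grow cells in 96-well plates. Step 2: Expose to compound for 48 hours at 5 concentrations. Step 3: Interpolate endpoints linearly; if unreached, use highest concentration. The concentration for 50% growth inhibition is given as GI50.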 Activity calls are given as the source filed them. Rule as the data show it: active = GI50 up to about 1.1 µM and inactive = higher.
# What was measured:
# Experiment in all cases: NCI tumour cell line growth inhibition, 48 h
# [1] = test system: 786-0
# [2] = test system: EKVX
# [3] = test system: U-251
# [4] = test system: MDA-MB-231
# [5] = test system: SF-295
# [6] = test system: UACC-62
# [7] = test system: HT-29
# [8] = test system: MDA-MB-435
# [9] = test system: TK-10
# [10] = test system: MOLT-4
# [11] = test system: A549
# [12] = test system: LOX IMVI
# [13] = test system: NCI-H23
# [14] = test system: RPMI-8226
# [15] = test system: Malme-3M
# [16] = test system: HCT-15
# [17] = test system: DU-145
# [18] = test system: HOP-62
# [19] = test system: SR
# [20] = test system: SK-MEL-2
SMILES,GI50 [1],GI50 [2],GI50 [3],GI50 [4],GI50 [5],GI50 [6],GI50 [7],GI50 [8],GI50 [9],GI50 [10],GI50 [11],GI50 [12],GI50 [13],GI50 [14],GI50 [15],GI50 [16] [µM],GI50 [17],GI50 [18],GI50 [19],GI50 [20]
C=C(c1ccccc1)c1ccccc1-c1cc(-c2ccccc2)cc(-c2ccccc2)n1,> 100 µM (inactive),> 100 µM (inactive),> 100 µM (inactive),> 100 µM (inactive),> 100 µM (inactive),74.6 µM (inactive),99.5 µM (inactive),82.2 µM (inactive),> 100 µM (inactive),> 100 µM (inactive),> 100 µM (inactive),> 100 µM (inactive),> 100 µM (inactive),58.1 µM (inactive),> 100 µM (inactive),> 100,> 100 µM (inactive),> 100 µM (inactive),> 100 µM (inactive),–
O=C1NC(NNc2ccccc2)=N/C1=C\c1ccco1,17.4 µM (inactive),18.7 µM (inactive),17.7 µM (inactive),20 µM (inactive),39.5 µM (inactive),4.29 µM (inactive),18.6 µM (inactive),12.4 µM (inactive),18.3 µM (inactive),30.1 µM (inactive),46.5 µM (inactive),–,18.8 µM (inactive),16.3 µM (inactive),28.1 µM (inactive),16,17.5 µM (inactive),33.9 µM (inactive),–,12.9 µM (inactive)
CC1=C(C(=O)NNC(=O)c2ccccc2O)CC(C(=O)NNC(=O)c2ccccc2O)=C(C)N1,3.13 µM (inactive),7.78 µM (inactive),0.459 µM (active),5 µM (inactive),0.535 µM (active),0.389 µM (active),7.93 µM (inactive),0.425 µM (active),> 47.3 µM (inactive),0.522 µM (active),0.48 µM (active),2.58 µM (inactive),2.1 µM (inactive),0.752 µM (active),> 100 µM (inactive),0.649,0.566 µM (active),5.46 µM (inactive),0.64 µM (active),–
Nc1ccc2c(c1)C(=O)c1c(F)cccc1-2,29.4 µM (inactive),0.656 µM (active),53.1 µM (inactive),45.6 µM (inactive),46 µM (inactive),32 µM (inactive),27.7 µM (inactive),> 100 µM (inactive),47.2 µM (inactive),–,96.6 µM (inactive),41.6 µM (inactive),61.8 µM (inactive),20.4 µM (inactive),38.4 µM (inactive),39.3,45 µM (inactive),30.3 µM (inactive),–,81.7 µM (inactive)
COc1cc(/C=C2\CCc3cc(OC)c(OC)cc3C2=O)cc(OC)c1,4.66 µM (inactive),24.3 µM (inactive),6.28 µM (inactive),12.9 µM (inactive),3.92 µM (inactive),3.75 µM (inactive),3.49 µM (inactive),1.99 µM (inactive),24 µM (inactive),12.8 µM (inactive),5.2 µM (inactive),6.3 µM (inactive),10.9 µM (inactive),12.8 µM (inactive),10 µM (inactive),3.62,9.98 µM (inactive),7.94 µM (inactive),–,5.96 µM (inactive)
Cc1nnc(N)nc1C/C=C/C(C)Sc1ccc(Cl)cc1 (stereo not given),8.41 µM (inactive),4.61 µM (inactive),8.93 µM (inactive),20.1 µM (inactive),2.77 µM (inactive),5.33 µM (inactive),16 µM (inactive),7.73 µM (inactive),15 µM (inactive),3.7 µM (inactive),7 µM (inactive),4.4 µM (inactive),5.47 µM (inactive),> 21.7 µM (inactive),13.2 µM (inactive),12.8,11.9 µM (inactive),6.47 µM (inactive),–,12.8 µM (inactive)
CCCCNC(=S)N/N=C/c1cccc(C)n1,35.2 µM (inactive),24.8 µM (inactive),44.2 µM (inactive),35.7 µM (inactive),33.2 µM (inactive),25.6 µM (inactive),> 10 µM (inactive),42.2 µM (inactive),29.7 µM (inactive),10.7 µM (inactive),32.4 µM (inactive),34.9 µM (inactive),59.3 µM (inactive),25.5 µM (inactive),52.2 µM (inactive),47.6,83.2 µM (inactive),23.9 µM (inactive),19.5 µM (inactive),–
CC(C)=CC1C(COC(=O)c2ccccc2Cl)C1(C)C (stereo not given),33.2 µM (inactive),25.8 µM (inactive),30.1 µM (inactive),49.7 µM (inactive),35.5 µM (inactive),> 100 µM (inactive),29.6 µM (inactive),85.1 µM (inactive),> 100 µM (inactive),24.3 µM (inactive),36.9 µM (inactive),20.2 µM (inactive),31.8 µM (inactive),–,23 µM (inactive),25.6,32.8 µM (inactive),38.4 µM (inactive),42.2 µM (inactive),46.7 µM (inactive)
C[C@]12CC[C@H](O)CC1=CC[C@@H]1C2CC[C@]2(C)c3n[nH]nc3CC12 (stereo not given in full),> 100 µM (inactive),52.7 µM (inactive),> 100 µM (inactive),> 100 µM (inactive),> 100 µM (inactive),96.6 µM (inactive),> 100 µM (inactive),36.2 µM (inactive),> 100 µM (inactive),> 100 µM (inactive),> 100 µM (inactive),–,> 100 µM (inactive),–,> 100 µM (inactive),–,> 100 µM (inactive),> 100 µM (inactive),25.9 µM (inactive),–
O=c1oc2ccccc2cc1-c1nc2ccccc2s1,4.58 µM (inactive),11.5 µM (inactive),7.35 µM (inactive),12 µM (inactive),8.57 µM (inactive),14.6 µM (inactive),11.2 µM (inactive),5.36 µM (inactive),12.6 µM (inactive),–,4.94 µM (inactive),10.1 µM (inactive),15.6 µM (inactive),2.79 µM (inactive),2.2 µM (inactive),29.6,14.2 µM (inactive),6.14 µM (inactive),0.491 µM (active),–
COc1ccc2c(c1)CC[C@@H]1C2CC[C@]2(C)C(=O)N(C)C(=O)CC12 (stereo not given in full),50.1 µM (inactive),> 100 µM (inactive),75.9 µM (inactive),> 100 µM (inactive),62.7 µM (inactive),> 100 µM (inactive),> 100 µM (inactive),> 100 µM (inactive),> 100 µM (inactive),> 100 µM (inactive),> 100 µM (inactive),–,> 100 µM (inactive),–,> 100 µM (inactive),–,> 100 µM (inactive),38.9 µM (inactive),13.9 µM (inactive),–
COC(=O)c1c([N+](=O)[O-])ncn1[C@H]1OC[C@@H](OC(C)=O)[C@@H](OC(C)=O)[C@@H]1OC(C)=O,> 100 µM (inactive),> 100 µM (inactive),> 100 µM (inactive),> 100 µM (inactive),> 100 µM (inactive),> 100 µM (inactive),> 100 µM (inactive),> 100 µM (inactive),> 100 µM (inactive),> 100 µM (inactive),> 100 µM (inactive),> 100 µM (inactive),> 100 µM (inactive),–,> 100 µM (inactive),> 100,> 100 µM (inactive),> 100 µM (inactive),> 100 µM (inactive),–
C=C(C)[C@@]1(O)CCC[C@H]1NC(=O)OC(C)(C)C,> 100 µM (inactive),> 100 µM (inactive),> 100 µM (inactive),> 100 µM (inactive),> 100 µM (inactive),–,> 100 µM (inactive),> 100 µM (inactive),> 100 µM (inactive),–,> 100 µM (inactive),> 100 µM (inactive),> 100 µM (inactive),–,> 100 µM (inactive),> 100,> 100 µM (inactive),> 100 µM (inactive),–,> 100 µM (inactive)
Fc1ccccc1-c1cc(S)c2cc3c(cc2n1)OCO3,10.4 µM (inactive),10.5 µM (inactive),4.33 µM (inactive),> 56.1 µM (inactive),7.91 µM (inactive),3.71 µM (inactive),17.2 µM (inactive),3.59 µM (inactive),> 48.3 µM (inactive),9.62 µM (inactive),5.52 µM (inactive),10.9 µM (inactive),9.55 µM (inactive),–,11.7 µM (inactive),5.65,13 µM (inactive),> 70.5 µM (inactive),4.34 µM (inactive),7.69 µM (inactive)
Cn1c(=O)c2c(nc3n(CC(O)CCl)c(=O)ccn23)n(C)c1=O (stereo not given),26.4 µM (inactive),42.9 µM (inactive),44 µM (inactive),31.3 µM (inactive),47.5 µM (inactive),36.5 µM (inactive),30.8 µM (inactive),47.8 µM (inactive),89.3 µM (inactive),6.17 µM (inactive),64 µM (inactive),29.1 µM (inactive),42.7 µM (inactive),19.5 µM (inactive),–,34.9,28.8 µM (inactive),46.9 µM (inactive),–,> 100 µM (inactive)
COc1ccc(NC(=O)C(=O)Cc2nc3ccc(C(=O)c4ccccc4)cc3nc2O)c([N+](=O)[O-])c1,39.1 µM (inactive),28.3 µM (inactive),41.9 µM (inactive),23 µM (inactive),31.8 µM (inactive),21.3 µM (inactive),14.9 µM (inactive),12.1 µM (inactive),24.9 µM (inactive),17.6 µM (inactive),47.1 µM (inactive),25.2 µM (inactive),20.5 µM (inactive),–,53.6 µM (inactive),34,27.5 µM (inactive),34.6 µM (inactive),18.3 µM (inactive),55.1 µM (inactive)
